Consider seven molecules from patent US20230095530A1, “COMPOUND USED AS RET KINASE INHIBITOR AND APPLICATION THEREOF” (TYK Medicines, Inc., priority 2019, published 2023).

Where two headings read alike, the source gives them in different places.

The target in one experiment is wild-type RET kinase (Homo sapiens, UniProt P07949). The experiment can be described thus: Kinase activity assay against wild-type RET at ATP Km (33P-ATP, filter-binding). It is filed as biochemical. To be noted: ATP Km concentration, 10 concentrations. On the procedure: […]. The biological activity screening of the compounds will be determined repeatedly at 10 concentrations.
wild-type RET kinase, sequence (P07949 29-1114): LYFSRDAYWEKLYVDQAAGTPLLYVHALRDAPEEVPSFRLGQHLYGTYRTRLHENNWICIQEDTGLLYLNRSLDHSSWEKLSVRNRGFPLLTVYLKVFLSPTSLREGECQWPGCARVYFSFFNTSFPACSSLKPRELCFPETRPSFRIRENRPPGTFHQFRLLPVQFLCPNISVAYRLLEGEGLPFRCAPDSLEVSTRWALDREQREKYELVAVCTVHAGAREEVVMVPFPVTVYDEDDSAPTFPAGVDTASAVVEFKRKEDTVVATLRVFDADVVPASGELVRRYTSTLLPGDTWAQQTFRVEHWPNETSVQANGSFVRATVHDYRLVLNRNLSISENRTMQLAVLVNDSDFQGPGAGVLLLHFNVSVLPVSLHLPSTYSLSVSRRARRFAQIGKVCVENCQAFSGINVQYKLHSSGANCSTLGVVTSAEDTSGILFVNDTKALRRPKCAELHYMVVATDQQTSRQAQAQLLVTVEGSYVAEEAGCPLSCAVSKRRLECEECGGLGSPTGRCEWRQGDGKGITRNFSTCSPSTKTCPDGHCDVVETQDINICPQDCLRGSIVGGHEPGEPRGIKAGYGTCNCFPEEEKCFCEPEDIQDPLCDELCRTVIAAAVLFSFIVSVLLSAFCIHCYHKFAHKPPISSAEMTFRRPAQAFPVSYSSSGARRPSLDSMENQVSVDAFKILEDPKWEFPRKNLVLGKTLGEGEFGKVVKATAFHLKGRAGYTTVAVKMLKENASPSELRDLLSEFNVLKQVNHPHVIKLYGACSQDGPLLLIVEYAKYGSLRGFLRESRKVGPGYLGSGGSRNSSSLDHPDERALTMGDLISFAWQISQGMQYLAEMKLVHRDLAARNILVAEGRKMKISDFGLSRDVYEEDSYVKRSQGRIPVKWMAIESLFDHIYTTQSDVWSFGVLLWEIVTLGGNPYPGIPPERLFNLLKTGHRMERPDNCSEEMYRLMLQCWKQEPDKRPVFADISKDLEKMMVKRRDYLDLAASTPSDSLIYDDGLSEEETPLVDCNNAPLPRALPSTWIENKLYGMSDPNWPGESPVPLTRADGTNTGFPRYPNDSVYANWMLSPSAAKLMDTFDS
Each sample was prepared into a solution with a concentration of 10 mM.
The test compound was dissolved in 100% dimethyl sulfoxide to a specific concentration. Integra Viaflo Assist was used to assist DMSO for (continuous) dilution.
Adding kinase into the newly prepared basic reaction buffer:
Adding any desired cofactors to the substrate solution;
Adding wild-type RET kinase into the substrate solution and gently mixing;
Using Acoustic technology (Echo 550; nanoliter range) to feed the compounds in 100% of dimethyl sulfoxide into the kinase reaction mixture and incubated at room temperature for 20 minutes.
Adding 33P-ATP (specific activity 10 Ci/1) into the reaction mixture to start the reaction.
Incubated at room temperature for 2 hours;
Radioactivity was detected by filter-binding method;
Kinase activity data was expressed as the percentage of remaining kinase activity in the test sample compared to the vehicle (dimethyl sulfoxide) reaction. Prism (GRAPHPAD software) was used to obtain IC50 value and curve-fitting.

Experiment [1] relates to tumor patients with RET fusion and mutation. To be noted: phase I, cited from earlier work.

As to `COc1ccc(CN2CCC(n3ccc(-c4cc(-c5cnn(C)c5)cn5ncc(C#N)c45)cc3=O)C2)cn1` (stereo not drawn) [Compound C5], the IC50 (usually the point on the concentration scale where inhibition reaches its midpoint) on wild-type RET kinase stood at 40.7 nM.

With `COc1ccc(CN2CCCC(n3ccc(-c4cc(-c5cnn(C)c5)cn5ncc(C#N)c45)cc3=O)C2)cn1` (stereo not drawn) [Compound C7], the IC50 on wild-type RET kinase worked out at 27.3 nM. In the case of `COc1ccc(CN2CCCC(n3cc(-c4cc(-c5cnn(C)c5)cn5ncc(C#N)c45)cn3)C2)cn1` (stereo not drawn) [Compound C2], the half-maximal inhibitory concentration (IC50) on wild-type RET kinase was determined as 3.52 nM. `COc1ccc(CN2CCC(n3ccc(-c4cc(-c5cnn(C)c5)cn5ncc(C#N)c45)cc3=O)CC2)cn1` [Compound C8] yielded an IC50 on wild-type RET kinase of 58 nM. For `CO[C@]1(C(=O)N[C@@H](C)c2ccc(-n3cc(F)cn3)nc2)CC[C@H](c2nc(C)cc(Nc3cc(C)[nH]n3)n2)CC1` [BLU-667], the figures for the ORR in experiment [1] (patients with medullary thyroid carcinoma) and in experiment [1] (patients with non-small cell lung cancer) were 40% and 50%, respectively. Further, in experiment [1] (tumor patients with RET fusion and mutation), the “overall remission rate (ORR)” value was 45%. In turn, `COc1ccc(CN2C3CC2CN(c2ccc(-c4cc(OCC(C)(C)O)cc5nccc(C#N)c45)cn2)C3)cn1` [Compound C3] returned an IC50 on wild-type RET kinase of 226 nM. `COc1ccc(CN2CCC(n3cc(-c4cc(-c5cnn(C)c5)cn5ncc(C#N)c45)cn3)C2)cn1` (stereo not drawn) [Compound C1] had an IC50 at wild-type RET kinase of 1.56 nM.
